Results: the supplement of paper PMC10307832

Tests used:
Assay in all cases: relative viability (nuclei count vs DMSO), 5 days (fraction); higher = more cells survive
CUDC-101 + Phenformin = compound: C#Cc1cccc(Nc2ncnc3cc(OC)c(OCCCCCCC(=O)NO)cc23)c1 [CUDC-101] + N=C(N)NC(=N)NCCc1ccccc1 [Phenformin] (partner 250 µM)
Summary of the method: (§1)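 Lung cancer cell lines in 1536-well plates were dosed by pin tool the day after seeding, either with one drug alone or with a fixed anchor-drug dose plus five library-drug doses (not always all listed) in √10 steps. After 5 days, cells were fixed and their nuclei stained in one step (final 0.05% Triton X-100, 1% formaldehyde, 1 ug/ml Hoechst), then counted on 4× images. Relative viability is the nuclei count in treated wells divided by that in vehicle wells. Values are medians of duplicate plates.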

Vandetanib + Pictilisib = compound: COc1cc2/c(=N/c3ccc(Br)cc3F)nc[nH]c2cc1OCC1CCN(C)CC1 [Vandetanib] + CS(=O)(=O)N1CCN(Cc2cc3nc(-c4cccc5[nH]ncc45)nc(N4CCOCC4)c3s2)CC1 [Pictilisib] (partner 1 µM)
Summary of the method: as §1

[1] = compound: C1=CC=C2C(=C1)N=C(S2)C(C#N)C3=NC(=NC=C3)NCCC4=CN=CC=C4 + O=C(CCCCCCC(=O)Nc1ccccc1)NO [Vorinostat] (partner 1 µM)
Summary of the method: as §1

Vandetanib + AZD7762 = compound: COc1cc2/c(=N/c3ccc(Br)cc3F)nc[nH]c2cc1OCC1CCN(C)CC1 [Vandetanib] + NC(=O)Nc1cc(-c2cccc(F)c2)sc1C(=O)N[C@H]1CCCNC1 [AZD7762] (partner 0.2 µM)
Summary of the method: as §1

Cell Line | relative viability (CUDC-101 + Phenformin; first compound 0.01 µM) | relative viability (CUDC-101 + Phenformin; first compound 0.03162 µM) | relative viability (CUDC-101 + Phenformin; first compound 0.1 µM) | relative viability (CUDC-101 + Phenformin; first compound 0.3162 µM) | relative viability (CUDC-101 + Phenformin; first compound 1 µM) | relative viability (Vandetanib + Pictilisib; first compound 0.02 µM) | relative viability (Vandetanib + Pictilisib; first compound 0.06325 µM) | relative viability (Vandetanib + Pictilisib; first compound 0.2 µM) | relative viability (Vandetanib + Pictilisib; first compound 0.6325 µM) | relative viability (Vandetanib + Pictilisib; first compound 2 µM) | relative viability ([1]; first compound 0.005 µM) | relative viability ([1]; first compound 0.01581 µM) | relative viability ([1]; first compound 0.05 µM) | relative viability ([1]; first compound 0.1581 µM) | relative viability ([1]; first compound 0.5 µM) | relative viability (Vandetanib + AZD7762; first compound 0.02 µM) | relative viability (Vandetanib + AZD7762; first compound 0.06325 µM) | relative viability (Vandetanib + AZD7762; first compound 0.2 µM) | relative viability (Vandetanib + AZD7762; first compound 0.6325 µM) | relative viability (Vandetanib + AZD7762; first compound 2 µM)
A549 | 0.172 | 0.192 | 0.143 | 0.158 | 0.141 | 0.499 | 0.419 | 0.614 | 0.473 | 0.412 | – | – | – | – | – | – | – | – | – | –
COR-L23 | 0.479 | 0.456 | 0.419 | 0.365 | 0.25 | 0.709 | 0.643 | 0.989 | 0.813 | 0.78 | 0.377 | 0.354 | 0.464 | 0.421 | 0.36 | – | – | – | – | –
COR-L 105 | 0.627 | 0.481 | 0.447 | 0.528 | 0.198 | 0.408 | 0.405 | 0.412 | 0.344 | 0.335 | 0.648 | 0.908 | 0.884 | 0.893 | 0.876 | – | – | – | – | –
Calu-6 | – | – | – | – | – | 0.938 | 0.9 | 0.881 | 0.807 | 0.907 | – | – | – | – | – | – | – | – | – | –
EBC-1 | – | – | – | – | – | 0.465 | 0.345 | 0.404 | 0.359 | 0.242 | – | – | – | – | – | – | – | – | – | –
IA-LM | – | – | – | – | – | 0.349 | – | 0.345 | 0.405 | 0.331 | 0.742 | 1.09 | 1.02 | 1.11 | 0.613 | – | – | – | – | –
NCI-H520 | 0.55 | 0.494 | 0.576 | 0.581 | 0.247 | 0.289 | 0.258 | 0.245 | 0.345 | 0.263 | 0.532 | 0.858 | 0.667 | 0.826 | 0.707 | – | – | – | – | –
NCI-H522 | 0.677 | 0.688 | 0.777 | 0.744 | 0.572 | – | – | – | – | – | 0.824 | 0.774 | 0.875 | 0.712 | 0.864 | 0.753 | 0.876 | 0.738 | 0.92 | 0.699
NCI-H661 | 0.284 | 0.291 | 0.291 | 0.311 | 0.246 | 0.381 | – | 0.373 | 0.382 | 0.347 | 0.81 | 0.85 | 0.73 | 0.831 | 0.862 | – | – | – | – | –
NCI-H1299 | – | – | – | – | – | 0.788 | 0.677 | 0.906 | 0.674 | 0.604 | – | – | – | – | – | – | – | – | – | –
NCI-H1563 | 0.664 | 0.643 | 0.745 | 0.613 | 0.659 | 0.62 | 0.707 | 0.623 | 0.656 | 0.657 | – | – | – | – | – | – | – | – | – | –
NCI-H1623 | 0.565 | 0.597 | 0.539 | 0.631 | 0.457 | – | – | – | – | – | – | – | – | – | – | – | – | – | – | –
NCI-H1648 | – | – | – | – | – | – | – | – | – | – | – | 0.448 | – | 0.622 | 0.417 | 0.643 | 0.601 | 0.676 | 0.638 | 0.625
NCI-H1650 | 0.405 | 0.313 | 0.36 | 0.452 | 0.188 | 0.561 | 0.511 | – | 0.555 | 0.515 | 0.472 | 0.597 | 0.535 | 0.676 | 0.439 | – | – | – | – | –
NCI-H1703 | – | – | – | – | – | 0.244 | 0.217 | 0.212 | 0.211 | 0.231 | – | – | – | – | – | 0.129 | – | 0.159 | 0.132 | 0.134
NCI-H1792 | 0.323 | 0.332 | – | 0.145 | 0.277 | 0.273 | 0.288 | 0.303 | 0.318 | 0.235 | – | – | – | – | – | 0.654 | 0.656 | 0.607 | 0.5 | 0.673
NCI-H2009 | 0.511 | 0.496 | 0.534 | 0.499 | 0.404 | 0.78 | 0.669 | 0.79 | 0.828 | 0.81 | 0.727 | 0.677 | 0.729 | 0.735 | 0.738 | – | – | – | – | –
NCI-H2023 | 0.406 | 0.379 | 0.438 | 0.481 | 0.341 | 0.218 | 0.201 | 0.261 | 0.202 | 0.279 | 0.566 | 1.09 | 0.454 | 0.763 | 0.607 | – | – | – | – | –
NCI-H2228 | 0.27 | 0.272 | 0.29 | 0.403 | 0.254 | 0.383 | 0.402 | – | 0.399 | 0.297 | 0.449 | 0.629 | 0.83 | 0.646 | 0.664 | – | – | – | – | –
NCI-H2342 | 0.619 | 0.621 | 0.667 | 0.643 | 0.43 | – | – | – | – | – | 0.621 | 0.811 | 0.737 | 0.776 | 0.756 | 0.483 | 0.479 | 0.707 | 0.537 | 0.365
SK-LU-1 | 0.497 | 0.441 | 0.576 | 0.593 | 0.493 | 0.657 | 0.43 | 0.509 | 0.663 | 0.532 | 0.643 | 0.859 | 0.787 | 0.911 | 0.685 | – | – | – | – | –
SK-MES-1 | 0.705 | 0.679 | 0.705 | 0.606 | 0.57 | 0.379 | 0.294 | 0.319 | 0.259 | 0.22 | 1.01 | 1.06 | 0.938 | 1.32 | 0.935 | – | – | – | – | –
SW 900 | 0.666 | 0.538 | 0.687 | 0.499 | 0.643 | – | – | – | – | – | 0.495 | 0.42 | 0.67 | 0.693 | 0.456 | 0.6 | 0.607 | – | 0.598 | 0.688
SW 1573 | 0.407 | 0.356 | 0.484 | 0.371 | 0.304 | 0.545 | 0.534 | 0.552 | 0.436 | 0.407 | 0.577 | 0.82 | 0.43 | 0.846 | 0.618 | – | – | – | – | –
